Measured values from patent publication US20100120730A1, “6-BENZYL-2,3,4,7-TETRAHYDRO-INDOLO [2,3-C] QUINOLINE COMPOUNDS USEFUL AS PDE5 INHIBITORS” (NYCOMED GmbH, priority 2007, published 2010).
pIC50: −log10 of the molar value.

Tests used:
human PDE5 = biological target: T1, human PDE5 (Homo sapiens, UniProt O76074); experiment: Inhibition of PDE5 activity (modified SPA test, human platelet lysate); type: biochemical; conditions: PDE5-containing human platelet lysate, 0.5 μM cGMP substrate, 37° C.
T1 construct: from tissue; host or cells: human platelets from fresh donor blood (10,000 g supernatant of sonified platelets)
How it was run: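 Human platelet lysate (10,000 g supernatant) as PDE5 source; SPA with 0.5 μM cGMP plus [3H]cGMP tracer, 20 mM Tris pH 7.4, 5 mM Mg2+, 1 μM motapizone and 10 nM BAY-60-7550; 5 min preincubation at 37° C., 15 min reaction, stopped with SPA beads containing IBMX. IC50 by non-linear regression.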

SMILES	pIC50 (human PDE5)	melting point [°C]
COc1ccc(Cc2nc3c(c4c2[nH]c2ccccc24)C(O)CC(C)(C)C3)cc1 (centres unmarked) [Example 47, 6-(4-Methoxy-benzyl)-3,3-dimethyl-2,3,4,7-tetrahydro-1H-indolo[2,3-c]quinolin-1-ol]	8.27	146
CC1(C)Cc2nc(Cc3cccc(N)c3)c3[nH]c4ccccc4c3c2C(O)C1 (centres unmarked) [Example 57, 6-(3-Amino-benzyl)-3,3-dimethyl-2,3,4,7-tetrahydro-1H-indolo[2,3-c]quinolin-1-ol]	8.39	225 to 227
COc1ccc(Cc2nc3c(c4c2[nH]c2ccccc24)C(=O)CC(C)C3)cc1 (centres unmarked) [Example 17, 6-(4-Methoxy-benzyl)-3-methyl-2,3,4,7-tetrahydro-indolo[2,3-c]quinolin-1-one]	8.50	102
CC(=O)Nc1ccc(Cc2nc3c(c4c2[nH]c2ccccc24)C(=O)CC(C)(C)C3)cc1 [Example 44, N-[4-(3,3-Dimethyl-1-oxo-2,3,4,7-tetrahydro-1H-indolo[2,3-c]quinolin-6-ylmethyl)-phenyl]-acetamide]	7.78	153 to 154
CC1(C)CC(=O)c2c(nc(Cc3ccc(F)c(F)c3)c3[nH]c4ccccc4c23)C1 [Example 24, 6-(3,4-Difluoro-benzyl)-3,3-dimethyl-2,3,4,7-tetrahydro-indolo[2,3-c]quinolin-1-one]	7.85	204 to 207
CC1(C)CC(=O)c2c(nc(Cc3cc(F)cc(F)c3)c3[nH]c4ccccc4c23)C1 [Example 22, 6-(3,5-Difluoro-benzyl)-3,3-dimethyl-2,3,4,7-tetrahydro-indolo[2,3-c]quinolin-1-one]	7.81	204 to 208
OC1CCCc2nc(Cc3ccc4c(c3)OCO4)c3[nH]c4ccccc4c3c21 (centres unmarked) [Example 61, 6-Benzo[1,3]dioxol-5-ylmethyl-2,3,4,7-tetrahydro-1H-indolo[2,3-c]quinolin-1-ol]	8.14	120 to 123
COc1ccc(Cc2nc3c(c4c2[nH]c2ccccc24)CCC(C)(C)C3)cc1 [Example 77, 6-(4-Methoxy-benzyl)-3,3-dimethyl-2,3,4,7-tetrahydro-1H-indolo[2,3-c]quinoline]	8.20	158
COc1ccc(Cc2c3[nH]c4ccccc4c3c3c([n+]2[O-])CC(C)(C)CC3=O)cc1 [Example 78, 6-(4-Methoxy-benzyl)-3,3-dimethyl-5-oxy-2,3,4,7-tetrahydro-indolo[2,3-c]quinolin-1-one]	7.81	202
CC1(C)CC(=O)c2c(nc(Cc3ccc(O)c(F)c3)c3[nH]c4ccccc4c23)C1 [Example 38, 6-(3-Fluoro-4-hydroxy-benzyl)-3,3-dimethyl-2,3,4,7-tetrahydro-indolo[2,3-c]quinolin-1-one]	9.20	216 to 218
CC1(C)CC(=O)c2c(nc(Cc3ccc(N)cc3)c3[nH]c4ccccc4c23)C1 [Example 40, 6-(4-Amino-benzyl)-3,3-dimethyl-2,3,4,7-tetrahydro-indolo[2,3-c]quinolin-1-one]	7.93	123 to 124
NC(=O)Nc1ccc(Cc2nc3c(c4c2[nH]c2ccccc24)C(=O)CCC3)cc1 [Example 76, [4-(1-Oxo-2,3,4,7-tetrahydro-1H-indolo[2,3-c]quinolin-6-ylmethyl)-phenyl]-urea]	7.38	232 to 234
COc1ccc(Cc2nc3c(c4c2[nH]c2ccccc24)[C@@H](O)CC(C)(C)C3)cc1F [Example 79, (S)-6-(3-Fluoro-4-methoxy-benzyl)-3,3-dimethyl-2,3,4,7-tetrahydro-1H-indolo[2,3-c]quinolin-1-ol]	9.10	164 to 166
CC1(C)Cc2nc(Cc3ccc(F)cc3)c3[nH]c4ccccc4c3c2C(O)C1 (centres unmarked) [Example 64, 6-(4-Fluoro-benzyl)-3,3-dimethyl-2,3,4,7-tetrahydro-1H-indolo[2,3-c]quinolin-1-ol]	7.54	187 to 189
COc1ccc(Cc2nc3c(c4c2[nH]c2ccccc24)CCC(C)C3)cc1 (centres unmarked) [Example 4, 6-(4-Methoxy-benzyl)-3-methyl-2,3,4,7-tetrahydro-1H-indolo[2,3-c]quinoline]	8.47	186
COc1ccc(Cc2nc3c(c4c2[nH]c2ccccc24)[C@@H](O)CCC3)cc1F [Example 85, (S)-6-(3-Fluoro-4-methoxy-benzyl)-2,3,4,7-tetrahydro-1H-indolo[2,3-c]quinolin-1-ol]	8.70	125 to 127
CCOc1ccc(Cc2nc3c(c4c2[nH]c2ccccc24)C(O)CC(C)(C)C3)cc1 (centres unmarked) [Example 55, 6-(4-Ethoxy-benzyl)-3,3-dimethyl-2,3,4,7-tetrahydro-1H-indolo[2,3-c]quinolin-1-ol]	7.60	182 to 184
COc1ccc(Cc2nc3c(c4c2[nH]c2ccccc24)C(=O)CCC3)cc1F [Example 29, 6-(3-Fluoro-4-methoxy-benzyl)-2,3,4,7-tetrahydro-indolo[2,3-c]quinolin-1-one]	8.90	228 to 230
COc1ccc(Cc2nc3c(c4c2[nH]c2ccccc24)[C@@H](O)CC(C)(C)C3)cc1 [Example 81, (S)-6-(4-Methoxy-benzyl)-3,3-dimethyl-2,3,4,7-tetrahydro-1H-indolo[2,3-c]quinolin-1-ol]	9.00	118 to 120
CC1(C)Cc2nc(Cc3cccc(Cl)c3)c3[nH]c4ccccc4c3c2[C@@H](O)C1 [Example 94, (S)-6-(3-Chloro-benzyl)-3,3-dimethyl-2,3,4,7-tetrahydro-1H-indolo[2,3-c]quinolin-1-ol]	7.82	124 to 127
OC1CCCc2nc(Cc3ccccc3)c3[nH]c4ccccc4c3c21 (centres unmarked) [Example 49, 6-Benzyl-2,3,4,7-tetrahydro-1H-indolo[2,3-c]quinolin-1-ol]	7.18	211
COc1ccc(Cc2nc3c(c4c2[nH]c2ccccc24)C(=O)CC(C)(C)C3)c(F)c1 [Example 27, 6-(2-Fluoro-4-methoxy-benzyl)-3,3-dimethyl-2,3,4,7-tetrahydro-indolo[2,3-c]quinolin-1-one]	8.65	138 to 140
